PubChem BioAssay AID330 (DTP/NCI, 2004)
“And” between values parts separate entries of the source, which are not always exact repeats. Identical values can stand only once. Toxic doses and inconclusive results are not listed.

Tested on: P388 leukemia ip, CD2F1 mice, survival T/C
Assay: NCI In Vivo Anticancer Drug Screen. Data for tumor model P388 Leukemia (intraperitoneal) in CD2F1 (CDF1) mice
Conditions: endpoint: median survival time, higher = longer survival
Procedure, shortened: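 Mice carrying the transplanted tumor received test compound or vehicle. Survival was recorded in each group, and the value is the treated-group measurement divided by that of the vehicle-treated control group.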

[1] = dose: 60.0 mg/kg/injection, schedule: Q01DX005 (ip), vehicle: saline
[2] = dose: 120.0 mg/kg/injection, schedule: Q01DX005 (ip), vehicle: saline
[3] = dose: 240.0 mg/kg/injection, schedule: Q01DX005 (ip), vehicle: saline
[4] = dose: 50.0 mg/kg/injection, schedule: Q01DX009 (ip), vehicle: saline with Tween-80
[5] = dose: 100.0 mg/kg/injection, schedule: Q01DX009 (ip), vehicle: saline with Tween-80
[6] = dose: 200.0 mg/kg/injection, schedule: Q01DX009 (ip), vehicle: saline with Tween-80
[7] = dose: 60.0 mg/kg/injection, schedule: Q01DX005 (ip), vehicle: saline with Tween-80

CCCCCn1c(C)cc(/C=C\c2ccc3cc(C)ccc3[n+]2C)c1C
T/C (dose: 0.5 mg/kg/injection, schedule: Q04DX003 (ip), vehicle: saline): 118 % of control | T/C (dose: 1.0 mg/kg/injection, schedule: Q04DX003 (ip), vehicle: saline): 109 % of control | T/C (dose: 2.0 mg/kg/injection, schedule: Q04DX003 (ip), vehicle: saline): 109 % of control

COc1cc(N(CCCl)CCCl)ccc1/C=N\NC(=O)c1cccnc1
T/C (dose: 25.0 mg/kg/injection, schedule: Q01DX007 (ip), vehicle: Klucel (hydroxypropylcellulose) (HPC)): 95 % of control | T/C (dose: 50.0 mg/kg/injection, schedule: Q01DX007 (ip), vehicle: Klucel (hydroxypropylcellulose) (HPC)): 108 % of control | T/C (dose: 100.0 mg/kg/injection, schedule: Q01DX007 (ip), vehicle: Klucel (hydroxypropylcellulose) (HPC)): 100 % of control | T/C (dose: 200.0 mg/kg/injection, schedule: Q01DX007 (ip), vehicle: Klucel (hydroxypropylcellulose) (HPC)): 101 % of control

CCCCOP(O)(=S)OCCCC.[Eu]
T/C (dose: 100.0 mg/kg/injection, schedule: Q04DX002 (ip), vehicle: saline with Tween-80): 96 % of control | T/C (dose: 200.0 mg/kg/injection, schedule: Q04DX002 (ip), vehicle: saline with Tween-80): 91 % of control | T/C (dose: 400.0 mg/kg/injection, schedule: Q04DX002 (ip), vehicle: saline with Tween-80): 90 % of control

CCC(CC)OCCN1CCN(CCCN2c3ccccc3Sc3ccc(C(F)(F)F)cc32)CC1
T/C (dose: 0.75 mg/kg/injection, schedule: Q01DX009 (ip), vehicle: saline with Tween-80): 110 % of control | T/C (dose: 1.5 mg/kg/injection, schedule: Q01DX009 (ip), vehicle: saline with Tween-80): 94 % of control | T/C (dose: 2.5 mg/kg/injection, schedule: Q04DX003 (ip), vehicle: saline): 110 % of control and 93 % of control | T/C (dose: 3.0 mg/kg/injection, schedule: Q01DX009 (ip), vehicle: saline with Tween-80): 99 % of control | T/C (dose: 5.0 mg/kg/injection, schedule: Q04DX003 (ip), vehicle: saline): 101 % of control and 97 % of control | T/C (dose: 6.0 mg/kg/injection, schedule: Q01DX009 (ip), vehicle: saline with Tween-80): 100 % of control | T/C (dose: 10.0 mg/kg/injection, schedule: Q04DX003 (ip), vehicle: saline with Tween-80): 99 % of control and 122 % of control | T/C (dose: 10.0 mg/kg/injection, schedule: Q04DX003 (ip), vehicle: saline): 109 % of control and 96 % of control | T/C (dose: 12.0 mg/kg/injection, schedule: Q01DX009 (ip), vehicle: saline with Tween-80): 110 % of control | T/C (dose: 20.0 mg/kg/injection, schedule: Q04DX003 (ip), vehicle: saline with Tween-80): 109 % of control and 119 % of control | T/C (dose: 20.0 mg/kg/injection, schedule: Q04DX003 (ip), vehicle: saline): 113 % of control and 98 % of control

Cc1ccc(CNc2ccccc2)cc1
T/C (dose: 100.0 mg/kg/injection, schedule: Q01DX009 (ip), vehicle: other): 100 % of control | T/C (dose: 200.0 mg/kg/injection, schedule: Q01DX009 (ip), vehicle: other): 100 % of control | T/C (dose: 400.0 mg/kg/injection, schedule: Q01DX009 (ip), vehicle: other): 100 % of control

CC(=O)N(c1c(N)[nH]c(=O)n(C)c1=O)C1OC(CO)C(O)C(O)C1O (stereo not drawn)
T/C [1]: 99 % of control | T/C [2]: 99 % of control | T/C [3]: 97 % of control

C/C(=C\COc1cc(O)c2c(c1)C(=O)c1cc(C)cc(O)c1C2=O)CCC1OC1(C)C (stereo not drawn)
T/C (dose: 2.5 mg/kg/injection, schedule: Q01DX005 (ip), vehicle: Klucel (hydroxypropylcellulose) (HPC)): 98 % of control | T/C (dose: 5.0 mg/kg/injection, schedule: Q01DX005 (ip), vehicle: Klucel (hydroxypropylcellulose) (HPC)): 93 % of control | T/C (dose: 10.0 mg/kg/injection, schedule: Q01DX005 (ip), vehicle: Klucel (hydroxypropylcellulose) (HPC)): 90 % of control | T/C (dose: 20.0 mg/kg/injection, schedule: Q01DX005 (ip), vehicle: Klucel (hydroxypropylcellulose) (HPC)): 88 % of control

NC(=O)c1ccc(-c2csc(=S)[nH]2)s1
T/C [4]: 100 % of control and 105 % of control | T/C [5]: 101 % of control and 108 % of control | T/C [6]: 96 % of control

S=C(Nc1ccccc1)SSC(Cl)(Cl)Cl
T/C (dose: 12.5 mg/kg/injection, schedule: Q01DX009 (ip), vehicle: saline + Tween-80 + alcohol): 93 % of control | T/C (dose: 25.0 mg/kg/injection, schedule: Q01DX009 (ip), vehicle: saline + Tween-80 + alcohol): 94 % of control | T/C (dose: 50.0 mg/kg/injection, schedule: Q01DX009 (ip), vehicle: saline + Tween-80 + alcohol): 109 % of control | T/C [4]: 117 % of control | T/C [5]: 114 % of control

C[n+]1c(-c2cccc(OCCCCCCCCCCOc3cccc(-c4c5cc(N)ccc5c5ccc(N)cc5[n+]4C)c3)c2)c2cc(N)ccc2c2ccc(N)cc21
T/C (dose: 0.39 mg/kg/injection, schedule: Q01DX005 (ip), vehicle: water): 168 % of control | T/C (dose: 0.78 mg/kg/injection, schedule: Q01DX005 (ip), vehicle: water): 153 % of control and 168 % of control | T/C (dose: 0.78 mg/kg/injection, schedule: Q01DX009 (ip), vehicle: water): 153 % of control | T/C (dose: 1.56 mg/kg/injection, schedule: Q01DX005 (ip), vehicle: water): 174 % of control | T/C (dose: 1.56 mg/kg/injection, schedule: Q01DX009 (ip), vehicle: water): 170 % of control | T/C (dose: 3.0 mg/kg/injection, schedule: Q01DX009 (ip), vehicle: water): 169 % of control | T/C (dose: 3.12 mg/kg/injection, schedule: Q01DX009 (ip), vehicle: water): 153 % of control | T/C (dose: 6.25 mg/kg/injection, schedule: Q01DX009 (ip), vehicle: water): 122 % of control

CC(=O)Nc1ccc(S(=O)(=O)Nc2ccc([N+](=O)[O-])cc2)cc1
T/C (dose: 100.0 mg/kg/injection, schedule: Q04DX003 (ip), vehicle: saline with Tween-80): 90 % of control | T/C (dose: 200.0 mg/kg/injection, schedule: Q04DX003 (ip), vehicle: saline with Tween-80): 86 % of control | T/C (dose: 400.0 mg/kg/injection, schedule: Q04DX003 (ip), vehicle: saline with Tween-80): 100 % of control

CCN(CC)CC.[CH-]1CCCCC1.[CH-]1CCCCC1.[CH3-].[Cl-].[Cl-].[Sn+4]
T/C (dose: 6.0 mg/kg/injection, schedule: Q01DX005 (ip), vehicle: saline): 107 % of control | T/C (dose: 12.0 mg/kg/injection, schedule: Q01DX005 (ip), vehicle: saline): 96 % of control

CCN(CC)C1CC(=O)C2(C)C3CCC4(C)C(C(C)C5CC(C)=C(CO)C(=O)O5)CCC4C3CC3OC32C1O (stereo not drawn)
T/C (dose: 4.5 mg/kg/injection, schedule: Q01DX005 (ip), vehicle: Klucel (hydroxypropylcellulose) (HPC)): 98 % of control | T/C (dose: 9.0 mg/kg/injection, schedule: Q01DX005 (ip), vehicle: Klucel (hydroxypropylcellulose) (HPC)): 93 % of control | T/C (dose: 18.0 mg/kg/injection, schedule: Q01DX005 (ip), vehicle: Klucel (hydroxypropylcellulose) (HPC)): 100 % of control | T/C (dose: 36.0 mg/kg/injection, schedule: Q01DX005 (ip), vehicle: Klucel (hydroxypropylcellulose) (HPC)): 98 % of control | T/C (dose: 72.0 mg/kg/injection, schedule: Q01DX005 (ip), vehicle: Klucel (hydroxypropylcellulose) (HPC)): 100 % of control

O=C1C2=C(OCO2)C(=O)C2=C1OCO2
T/C (dose: 15.0 mg/kg/injection, schedule: Q01DX005 (ip), vehicle: saline with Tween-80): 104 % of control | T/C (dose: 30.0 mg/kg/injection, schedule: Q01DX005 (ip), vehicle: saline with Tween-80): 101 % of control | T/C [7]: 106 % of control

CCCCOC(=O)OOC(C)(C)C
T/C [4]: 110 % of control | T/C [5]: 110 % of control | T/C [6]: 110 % of control

Cc1ccc(NC(=O)N(NC(=O)NNc2ccccc2)c2ccccc2)c(C)c1
T/C [4]: 99 % of control | T/C [5]: 93 % of control | T/C [6]: 92 % of control

CCOC(=O)NC(C)(C)CN(C(=O)OCC)C(C)C
T/C (dose: 100.0 mg/kg/injection, schedule: Q04DX003 (ip), vehicle: other): 95 % of control | T/C (dose: 200.0 mg/kg/injection, schedule: Q04DX003 (ip), vehicle: other): 100 % of control | T/C (dose: 400.0 mg/kg/injection, schedule: Q04DX003 (ip), vehicle: other): 95 % of control

C1=[N+]2CCCC2Cc2ccc3ccccc3c21 (stereo not drawn)
T/C (dose: 12.5 mg/kg/injection, schedule: Q04DX003 (ip), vehicle: saline): 100 % of control | T/C (dose: 25.0 mg/kg/injection, schedule: Q04DX003 (ip), vehicle: saline): 103 % of control | T/C (dose: 50.0 mg/kg/injection, schedule: Q04DX003 (ip), vehicle: saline): 100 % of control

CC(=O)OC1C(C(O)CO)OC2OC(C)(C)OC21 (stereo not drawn)
T/C [1]: 100 % of control | T/C [2]: 105 % of control | T/C [3]: 96 % of control

O=C(O)C#Cc1cccnc1
T/C [7]: 106 % of control | T/C (dose: 120.0 mg/kg/injection, schedule: Q01DX005 (ip), vehicle: saline with Tween-80): 98 % of control | T/C (dose: 240.0 mg/kg/injection, schedule: Q01DX005 (ip), vehicle: saline with Tween-80): 91 % of control
